Data set [1] has as its system TTSS-mediated lysis of sheep RBC by EPEC E2348/69. To be noted: for inhibition of TTSS-mediated RBC lysis caused by E2348/69: peptide 0.56 mg/ml, bacteria preincubated with peptide 1 h, then 5% sheep RBC 3 h at 37°C, released hemoglobin OD 543 nm, relative to EPEC alone (100%), triplicate. How it is done: Twelve-well plates containing peptides and bacteria were incubated for 1 h to allow their interaction. A 5% suspension of RBC was then added, plates were incubated for another 3 h, and supernatants were monitored for released hemoglobin.
K12 means the hemolysis caused by the E. coli non-pathogenic strain. […] Each assay was done by triplicate.
The plates were incubated for 1 h under a 5% CO2 atmosphere to allow the interaction between peptides and bacteria. In turn, red blood cells (RBCs) were separated by centrifugation from fresh defibrinated sheep blood, which was obtained by jugular vein punction, washed three times with 10 mM PBS (pH 7.4) and resuspended at 5% in PBS. Then, 2 ml of the 5% suspension of RBC in PBS was added to the cultures in the plates and incubated for 3 h at 37°C under a 5% CO2 atmosphere. The suspension was removed from the plates and centrifuged at 12,000×g for 1 min. Supernatants were monitored for the presence of released hemoglobin by measuring the OD at 543 nm.

Data set [2] has as its system EPEC adherence to HEp-2 cells. Description: Non-adherent bacteria in supernatant of infected HEp-2 cells, HEp-2 detaching. The data set is classed as cell-based, enteropathogenic E. coli (EPEC) E2348/69. To be noted: data not shown; for non-adherent bacteria in the supernatant of HEp-2 cells vs EPEC without peptides: EPEC preincubated with peptide; for HEp-2 detaching activity (cytopathic effect) by EPEC: bacteria preincubated with peptide. On the procedure: (§1) For that, HEp-2 cells were treated with EPEC preincubated either with or without CoilA or CoilB, and EspA and Tir were then visualized using specific antibodies and confocal microscopy.
(§2) HEp-2 monolayers were inoculated with bacteria pretreated with CoilA or CoilB peptides as described for fluorescent actin staining. After infection, the supernatant was removed from the plates and serial dilutions were cultured overnight at 37°C on LB agar plates to determine the viability of bacteria. In turn, the monolayers were resuspended in 40 µl of lysis buffer (1% Triton X-100) and protease inhibitor mix (Complete™ protease inhibitors, Roche). This material was subjected to Western blotting as mentioned above.

For data set [3], the system named is EspA, EspB, EspD and Tir secretion by EPEC E2348/69. Description: In vitro TTSS protein secretion, Western blot of culture supernatants and bacterial lysates. Type of data set: cell-based, enteropathogenic E. coli (EPEC) E2348/69. The conditions noted are these: EPEC incubated 4 h in DMEM with peptide 0.56 mg/ml; for secretion of EspD, Western blot: protein detected in pellet of lysed bacteria. How it is done:
EPEC E2348/69 bacterial cultures were incubated in the presence of CoilA or CoilB peptides and concentrated supernatants and bacterial extracts were analyzed by Western blotting using specific antisera directed to EspA, EspB, EspD or Tir. The same amount of cell monolayer was loaded in each lane. pH represents a mock control to rule out the biological influence of alkaline pH used to dissolve peptides. PBS at alkaline pH was used in volumes identical to those in which peptides were added to cultures.
In order to determine the effect of syntethic peptides in the production and excretion of TTSS-proteins by EPEC, cellular and supernatants culture extracts of peptide-treated bacteria were subjected to western blot analysis with specific antisera. The E2348/69 strain grown overnight at 37°C in LB was diluted 1∶100 into 2 ml of DMEM containing CoilA or CoilB peptides at a concentration of 0.56 mg/ml, respectively, and cultured for another 4 h in the presence of 5% CO2. After collecting by centrifugation, bacteria were suspended in 2X SDS sample buffer and boiled for 5 min. The proteins present in culture supernatants were precipitated by the addition of trichloroacetic acid at 20% (wt/vol) and incubated overnight at 4°C. The protein precipitates were then collected by centrifugation at 20,000×g for 25 min, washed twice with 200 µl of ice-cold acetone and resuspended in 20 µl Tris-HCl 10 mM pH 8.8. Whole-cell extracts and culture supernatants were then analyzed by Western blotting using polyclonal rabbit antibodies against EspA, EspB, EspD and Tir recombinant proteins as described by Vilte et al. Primary antibodies were detected with horseradish peroxidase-conjugated goat anti-rabbit IgG (Sigma Chemical Co., St. Louis, MO) diluted 1∶10,000.

Data set [4] concerns EspA and Tir associated to HEp-2 cells infected with EPEC E2348/69. Briefly: Western blot of EPEC-secreted proteins associated to HEp-2 cells. The data set is classed as cell-based, enteropathogenic E. coli (EPEC) E2348/69. To be noted: HEp-2 cells treated 2 h with EPEC preincubated with peptide, washed, lysed. On the procedure:
To further determine the effect of CoilA and CoilB on EspA polymerization and Tir translocation were also examined by Western blotting. For that, HEp-2 cells were treated for 2 h with either EPEC alone or preincubated with each of the peptides and exhaustively washed. Cell extracts were prepared and the contents of EspA and Tir (Fig. 4) analyzed by Western blot using specific antibodies. […] The effective amount of EspA and Tir associated per cell may be even higher in non-treated (without peptides) cell cultures because it could be underestimated as some HEp-2 cells are detached from the surface upon infection. The pH buffering solution used to dilute CoilA and CoilB peptides had no effect and the results were similar to the positive control (Fig. 4).
Figure 4 CoilA and CoilB peptides block EspA polymerization and Tir translocation. Cell monolayers were infected with bacteria pretreated with peptides, washed, and lysed for Western blot detection of EspA and Tir proteins with specific rabbit antisera. pH represents a mock control to rule out the biological influence of alkaline pH used to dissolve peptides; PBS at alkaline pH was used in a volume identical to those in which peptides were added to HEp-2 cells.
as §2

The test system of data set [5] is EspA polymerization and Tir translocation by EPEC E2348/69. Briefly: Immunofluorescence of EspA and Tir on infected HEp-2 cells (confocal microscopy). The data set is classed as cell-based, enteropathogenic E. coli (EPEC) E2348/69. The conditions noted are these: bacteria preincubated with peptide 0.56 mg/ml. On the procedure: as §1
For data set [6], the system named is EspA filaments on EPEC E2348/69. Description: Immunogold labeling and TEM of EspA filaments. The data set is classed as cell-based, enteropathogenic E. coli (EPEC) E2348/69. To be noted: EPEC incubated 4 h with peptide 0.56 mg/ml, fifty filaments, average with standard deviation, EPEC alone 700±150 nm. On the procedure:
Since coil peptides are able to inhibit the TTSS by blocking EspA polymerization, we expected a decrement in EspA filaments on the bacterial cell surface upon incubation with coil peptides.
Figure 6 CoilA peptide blocks the formation of EspA filaments. Immunogold EM of EspA filaments on EPEC cultures incubated either with or without CoilA peptide. After incubation of bacterial samples with specific rabbit anti-EspA serum, the samples were observed by TEM. EPEC alone, without peptides (A, C) and EPEC incubated with CoilA (B, D). Bars, 200 nm (A, B), or 100 nm (C, D). Yellow box frames show EspA filaments.
EPEC E2348/69 strain was grown in LB overnight at 37°C without shaking and diluted 1∶100 into DMEM with 0.56 mg/ml of either CoilA or CoilB, in 24-well plates. The plates were incubated for 4 h under a 5% CO2 atmosphere. A 50 µl droplet of bacterial culture was applied to nickel EM grids (mesh 200) coated with 0.25% Formvar resin (Structure Probe, Inc., SPI supplies, PA, USA) for 2 min. Cells were immediately fixed face down for 15 min with 0.1% buffered glutaraldehyde in PBS (pH 7.3). The grids were washed by transfer across 6 drops of PBS and blocked in PBS containing 0.2% bovine serum albumin for 30 min at room temperature. […] Fifty EspA filaments were identified and the size was measured the length is given as an average with a standard deviation.

The subject of data set [7] is EPEC E2348/69 adhering to HEp-2 cells. Briefly: Fluorescent actin staining (FAS), A/E lesion / pedestal formation in HEp-2 cells. The data set is classed as cell-based, enteropathogenic E. coli (EPEC) E2348/69. To be noted: peptide 0.56 mg/ml preincubated 1 h with EPEC, MOI 7, 2 h infection, 100 cells examined; EPEC without peptides 80%. An excerpt:
Since CoilA, CoilB and CoilD were able to inhibit the hemolysis caused by EPEC, which could involve translocator proteins at cell membrane level, we decided to explore whether peptides were also able to block effector proteins delivery and thus prevent the formation of A/E lesions in epithelial cells. Thus, peptides interfering in actin polymerization beneath E2348/69 strain adhering to HEp-2 cells were visualized by FAS (fluorescent actin staining). As expected, EPEC bacteria were able to induce actin polymerization for pedestal formation in almost all the cells (Fig. 2A), the A/E lesions were not seen in uninfected cells (Fig. 2B). CoilA or CoilB preincubation with EPEC caused a decrease in pedestal formation in epithelial cells, showing different effectiveness (Fig. 2C and Fig. 2D).
Figure 2 Coiled-coil peptides inhibit A/E lesion formation caused by EPEC. HEp-2 cells were incubated with EPEC E2348/69 either with or without coiled-coil peptides. […] Incubation of HEp-2 cells with the wild type EPEC E2348/69 strain without peptides (EPEC WT); preincubated with CoilA (EPEC+CoilA), or CoilB (EPEC+CoilB) peptide and uninfected cells. The corresponding percentage of HEp-2 cells carrying pedestals, obtained by examining 100 cells, is shown in panel E. EPEC pH represents a mock control to rule out the biological influence of alkaline pH used to dissolve peptides; PBS at alkaline pH was used in volumes identical to those in which peptides were added to HEp-2 cells.
HEp-2 cells (5×10^4) were seeded in eight well chamber slides (NUNC, Lab-Tek, USA) and incubated at 37°C under a 5% CO2 atmosphere up to 70–90% confluence. Overnight LB culture of the EPEC E2348/69 strain was diluted 1∶20 into 3 ml of DMEM and cultured for 1 h. CoilA, CoilB or CoilD peptides were then added to the culture at a concentration of 0.56 mg/ml and allowed to interact with the bacteria for 1 h at 37°C under a 5% CO2 atmosphere. […] The cells were observed under fluorescence microscopy with a confocal laser microscope (Leica TC SP2).

Data set [8] can be described thus: Solubilization of peptides in PBS pH 10.0 / precipitation. The data set is classed as physicochemical. On the procedure: CoilA, CoilB, CoilC, CoilD and PepTir peptides were synthesized commercially (Genbiotech, Buenos Aires). Peptides were solubilized with PBS (pH 10.0). […] EPEC E2348/69 [42] was kindly provided by Marta Rivas, ANLIS-Instituto Nacional de Microbiología Dr. Carlos G. Malbrán, Buenos Aires. […] Bacteria were grown in Luria Bertani broth (LB) or Dulbecco's modified Eagle medium (DMEM) lacking phenol red (Gibco-BRL), without antibiotics and bovine fetal serum at 37°C without shaking.

Ends that are not written are not given here.

On to KVNIDENGNAI [PepTir], for which the “inhibition of TTSS-mediated RBC lysis caused by E2348/69” value (from here on “inhibition”) in data set [1] was “did not show inhibitory activity”.

As for LSDSVPELLNSTDLV [CoilC], in data set [1], the “inhibition” value is given as “did not show inhibitory activity”.

For LTTTVNNSQLEIQQM [CoilA], in data set [2], the “non-adherent bacteria in the supernatant of HEp-2 cells vs EPEC without peptides” value is listed as 7 fold and the “HEp-2 detaching activity (cytopathic effect) by EPEC” value was “absent”. Also, in data set [3], the “secretion of EspB to the culture supernatant, Western blot” value is reported as “not clearly observed”; the “secretion of Tir in vitro, Western blot” value was “lightly decreased”; the “secretion of EspD, Western blot” value is on record as “affected”. Besides, in data set [4], the “Tir in the cells, Western blot” value was “significant decrease”; the “amount of EspA associated to the cells and attached bacteria (incl. EspA polymers), Western blot” value is reported as “drastically decreased”. The “hemolysis at reduced peptide concentration” value in data set [1] (peptide 0.15 mg/ml, preincubated with EPEC E2348/69, sheep RBC, relative to EPEC alone) is 50%. In addition, the “inhibition” value in data set [1] is listed as “around 95%”. In addition, in data set [5] (anti-EspA sera), the “secreted EspA (immunofluorescence)” value was “drastic decrease”. Besides, the “translocated Tir (immunofluorescence)” value in data set [5] (anti-Tir sera) is on record as “drastic decrease”. The EspA filament length result in data set [6] is “about 250±50 nm”. Also, in data set [7], the “HEp-2 cells showing pedestals” value is 20%.

As to MSNTLNLLTSARSDM [CoilB], in data set [2], the “non-adherent bacteria in the supernatant of HEp-2 cells vs EPEC without peptides” value was determined as 40 fold and the “HEp-2 detaching activity (cytopathic effect) by EPEC” value was “absent”. In data set [3], the “secretion of EspB to the culture supernatant, Western blot” value was “blocked the secretion of EspB”; the “secretion of Tir in vitro, Western blot” value is reported as “lightly decreased”; the “secretion of EspD, Western blot” value is recorded as “affected”. Further, in data set [4], the “Tir in the cells, Western blot” value is given as “significant decrease”; the “amount of EspA associated to the cells and attached bacteria (incl. EspA polymers), Western blot” value is given as “drastically decreased”. The “inhibition” value in data set [1] is “around 95%”. In data set [8] (observed in preparation for electron micrographs), the “tendency to precipitate / aggregation” value is recorded as “tendency to precipitate forming clumps”. Besides, the “solubility in PBS (pH 10.0)” value in data set [8] (peptides solubilized with PBS pH 10.0) is on record as “not completely soluble”. For the same sequence, in data set [7], the “HEp-2 cells showing pedestals” value is listed as 2%.

As for VNDPEKMLELQFAVQ [CoilD], in data set [1], the “inhibition” value is recorded as 25%. Also, in data set [7], the “HEp-2 cells showing pedestals” value is on record as “unable to inhibit pedestal formation”.

Values taken from paper PMC2816223, “Designed Coiled-Coil Peptides Inhibit the Type Three Secretion System of Enteropathogenic Escherichia coli” (PLoS ONE, 2010).
